# In PMC7922564, “Molecular Insights into an Antibiotic Enhancer Action of New Morpholine-Containing 5-Arylideneimidazolones in the Fight against MDR Bacteria” (International Journal of Molecular Sciences, 2021):
# Where two headings read alike, the source gives them in different places.
# Columns and labels:
# S. aureus MM-O021 = assay: MIC reduction assay (antibiotic adjuvant), S. aureus MM-O021; assay type: cell-based, Staphylococcus aureus
# Text: (§1) The adjuvant properties of compounds 14–16 in S. aureus clinical isolates were next tested in combination with oxacillin and the penicillinase-susceptible β-lactam antibiotic, ampicillin. The second β-lactam antibiotic was chosen based on its vulnerability to enzymatic hydrolysis, another important resistance mechanism in S. aureus against penicillin. Therefore, the results of the MIC reduction assay obtained on the activity of arylideneimidazolones combined with oxacillin and ampicillin, respectively, might provide further insights into the possible mechanism of action of the compounds. Complete results are presented in Supplementary (Tables S4 and S5), while condensed in Figure 6, in the case of desired activity noted. […] One possible explanation for the lack of adjuvant activity of compounds in some of the strains selected for this study might be that these strains express PBP2a only when induced by the antibiotic, while others, for which potentiating activity of compounds was observed, produce this protein in high levels straight away.
# (§2) Determination of MIC values, i.e., intrinsic antibacterial activity, of products and antibiotics (oxacillin, ampicillin, vancomycin, ciprofloxacin, and erythromycin) in the presence and absence of compounds tested was conducted by the use of a standard 2-fold microdilution method in cation-adjusted Mueller Hinton broth following the Clinical and Laboratory Standards Institute (CLSI) guidelines. The MIC values were detected using an Infinite M200 pro Tecan microplate reader (Tecan® France, SA-Lyon, France). MIC determinations were conducted in 96-well microtiter plates and repeated 3–4 times.
# (§3) Initially, MICs of a series of imidazolone derivatives were assessed against susceptible (reference) and MDR strains of staphylococci. Next, MIC values of the aforementioned antibiotics were determined in the absence and presence of imidazolone derivatives to assess the chemosensitizing effect of these compounds. […] 5-arylideneimidazolones and 5-arylidenethiazolones, which precipitated after addition to bacterial suspension in MH II medium, were tested at the highest concentrations at which precipitation was not observed. […] Antibacterial activity of compounds and antibiotics ampicillin, vancomycin, ciprofloxacin, and erythromycin was recorded as the lowest concentration of molecules able to inhibit bacterial growth after 18 h incubation at 37 °C. The incubation of bacterial strains exposed to oxacillin paired with compounds tested was conducted at 35 °C and extended to 24 h due to frequent occurrence of heterogeneity among MRSA strains. The results are presented as activity gain (A) parameter which was calculated as ratio of MIC of a certain antibiotic (MICAnt) to its MICAnt+Comp, observed in combination with a tested compound (7, 12–16, 19, or 20; Equation (1)). (1) A=(MICAnt/MICAnt+Comp)
# S. aureus MM-O058 = assay: MIC of compounds, S. aureus MM-O058; assay type: cell-based; settings: Staphylococcus aureus; MM-O058 (MSSA)
# Method: (§4) Compounds 14–16 were tested further for their adjuvant-like effect with a set of ten additional S. aureus isolates. Firstly, MIC values of the molecules were evaluated in two clinical MSSA isolates (MM-O058, MM-N072), seven MRSA (USA300 LAC, 5328, LG-N017, MM-O021, R45-CC45, R46-CC22, COL) and one VISA strain (Mu50). Detailed results are presented in the Supplementary section (Table S3).
# as §2
# as §3, with “The incubation of bacterial strains exposed to oxacillin paired with compounds tested was conducted at 35 °C and extended to 24 h due to frequent occurrence of heterogeneity among MRSA strains.” left out, “(1) A=(MICAnt/MICAnt+Comp)” left out
# K. aerogenes Ea-289 = assay: MIC reduction assay (antibiotic adjuvant), K. aerogenes Ea-289; assay type: cell-based, Klebsiella aerogenes;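 note: compound at no more than one quarter of its own MIC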
# Method: At first, MIC values of compounds were determined (Table S15, Supplementary). Next, their abilities to reduce MICs of the AcrAB-TolC substrates doxycycline (a tetracycline-class antibiotic) and erythromycin were studied (Table S16, Supplementary).
# (§5) A subset of compounds, namely 7, 12–16, 19, 20, was also examined for the potential to increase the effectiveness of the antibiotics chloramphenicol, erythromycin, doxycycline, and the fluoroquinolone antibiotic norfloxacin, which all are substrates for AcrAB-TolC in K. aerogenes. In addition to strain Ea-289, the adjuvant-like effect of the compounds was investigated in strain CM-64, which also overexpresses the AcrAB-TolC efflux pump, although it has no changes in porin content, and in the Ea-289 derivatives, i.e., Ea-294 and Ea-308, which are devoid of AcrAB (Table S17, Supplementary).
# as §3
# (§6) MIC values of 5-arylideneimidazolone derivatives were determined following CLSI recommendations as in the methods described for S. aureus (Section 3.3.1).
# [1] = tested on: K. aerogenes Ea-294, Ea-308; assay: MIC reduction assay (antibiotic adjuvant), K. aerogenes Ea-294, Ea-308; assay type: cell-based, Klebsiella aerogenes; settings: doxycycline, chloramphenicol, norfloxacin, erythromycin;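 note: compound at no more than one quarter of its own MIC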
# Text: as §5, §3, §6
# S. aureus Mu50 = assay: MIC reduction assay (antibiotic adjuvant), S. aureus Mu50; assay type: cell-based, Staphylococcus aureus; parameters: key: A = MIC of antibiotic alone / MIC with compound;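 note: compound at no more than one quarter of its own MIC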
# Text: as §1, §2, §3
# S. aureus R45-CC45 = assay: MIC of compounds, S. aureus R45-CC45; assay type: cell-based; settings: Staphylococcus aureus, read-out: MIC value of compounds
# Method: as §4, §2
# as §3, with “The incubation of bacterial strains exposed to oxacillin paired with compounds tested was conducted at 35 °C and extended to 24 h due to frequent occurrence of heterogeneity among MRSA strains.” left out, “(1) A=(MICAnt/MICAnt+Comp)” left out
# S. aureus LG-N017 [2] = assay: MIC reduction assay (antibiotic adjuvant), S. aureus LG-N017; assay type: cell-based, Staphylococcus aureus
# Text: as §1, §2, §3
# S. aureus 5328 = assay: MIC of compounds, S. aureus 5328; assay type: cell-based; settings: Staphylococcus aureus; 5328 (MRSA)
# Method: as §4, §2
# as §3, with “The incubation of bacterial strains exposed to oxacillin paired with compounds tested was conducted at 35 °C and extended to 24 h due to frequent occurrence of heterogeneity among MRSA strains.” left out, “(1) A=(MICAnt/MICAnt+Comp)” left out
# S. aureus LG-N017 [3] = assay: MIC of compounds, S. aureus LG-N017; assay type: cell-based; settings: Staphylococcus aureus; LG-N017 (MRSA)
# Method: as §4, §2
# as §3, with “The incubation of bacterial strains exposed to oxacillin paired with compounds tested was conducted at 35 °C and extended to 24 h due to frequent occurrence of heterogeneity among MRSA strains.” left out, “(1) A=(MICAnt/MICAnt+Comp)” left out
# [4] = tested on: K. aerogenes CM-64 (overexpression of AcrAB-TolC); assay: MIC of compounds, K. aerogenes CM-64; assay type: cell-based; settings: Klebsiella aerogenes, read-out: Minimal Inhibitory Concentration (MIC)
# Text: as §5, §2, §6
# S. aureus R46-CC22 = assay: MIC of compounds, S. aureus R46-CC22; assay type: cell-based; settings: Staphylococcus aureus; R46-CC22 (MRSA)
# Method: as §4, §2
# as §3, with “The incubation of bacterial strains exposed to oxacillin paired with compounds tested was conducted at 35 °C and extended to 24 h due to frequent occurrence of heterogeneity among MRSA strains.” left out, “(1) A=(MICAnt/MICAnt+Comp)” left out
# [5] = ampicillin, range over repetitions
# [6] = doxycycline, chloramphenicol, norfloxacin, erythromycin
compound,measurement,setting,value
NC1=N/C(=C\c2ccc(-c3ccccc3)cc2)C(=O)N1CCCN1CCOCC1 [Compound 15],"A (AMP), gain of activity, arithmetic mean","S. aureus MM-O021; ampicillin, arithmetic mean of 3-4 repetitions",10.7
same,A (activity gain),S. aureus MM-O021; [5],8-16
same,A (activity gain),S. aureus MM-O021; erythromycin,1
same,MIC,S. aureus MM-O058,250 µM
same,A (activity gain),K. aerogenes Ea-289; doxycycline,1
same,A (activity gain),K. aerogenes Ea-289; [6],1
same,A (activity gain),K. aerogenes Ea-289; erythromycin,1
same,A (activity gain),[1],1
same,A (activity gain),S. aureus Mu50; ampicillin,2
same,A (activity gain),S. aureus Mu50; ciprofloxacin,1
same,A (activity gain),S. aureus Mu50; erythromycin,1
same,A (activity gain),S. aureus Mu50; vancomycin,1
same,MIC,S. aureus R45-CC45; MRSA,125 to 250 µM
same,A (activity gain),S. aureus LG-N017 [2]; ampicillin,1
same,A (activity gain),S. aureus LG-N017 [2]; erythromycin,1
same,MIC,S. aureus 5328,250 µM
same,MIC,S. aureus LG-N017 [3],250 µM
same,MIC,[4],> 2000 µM
same,MIC,S. aureus R46-CC22,250 µM
NC1=N/C(=C\c2ccc(-c3ccccc3)cc2)C(=O)N1CCN1CCOCC1 [Compound 14],A (activity gain),S. aureus MM-O021; [5],1
same,A (activity gain),S. aureus MM-O021; erythromycin,1
same,MIC,S. aureus MM-O058,≥ 1000 µM
same,A (activity gain),K. aerogenes Ea-289; doxycycline,1
same,A (activity gain),K. aerogenes Ea-289; [6],1
same,A (activity gain),K. aerogenes Ea-289; erythromycin,1
same,A (activity gain),[1],1
same,A (activity gain),S. aureus Mu50; ampicillin,1
same,A (activity gain),S. aureus Mu50; ciprofloxacin,1
same,A (activity gain),S. aureus Mu50; erythromycin,1
same,A (activity gain),S. aureus Mu50; vancomycin,1
same,MIC,S. aureus R45-CC45; R45-CC45 (MRSA),≥ 500 µM
same,A (activity gain),S. aureus LG-N017 [2]; ampicillin,2
same,A (activity gain),S. aureus LG-N017 [2]; erythromycin,1
same,MIC,S. aureus 5328,≥ 500 µM
same,MIC,S. aureus LG-N017 [3],≥ 500 µM
same,MIC,[4],> 2000 µM
same,MIC,S. aureus R46-CC22,≥ 500 µM
NC1=N/C(=C\c2ccc3c(c2)Cc2ccccc2-3)C(=O)N1CCCN1CCOCC1 [Compound 19],A (activity gain),K. aerogenes Ea-289; doxycycline,1
same,A (activity gain),K. aerogenes Ea-289; [6],1
same,A (activity gain),K. aerogenes Ea-289; erythromycin,1
same,A (activity gain),[1],1
same,MIC,[4],> 2000 µM
NC1=N/C(=C\c2cccc(Oc3ccccc3)c2)C(=O)N1CCCN1CCOCC1 [Compound 16],A (activity gain),S. aureus MM-O021; [5],1
same,A (activity gain),S. aureus MM-O021; erythromycin,1
same,MIC,S. aureus MM-O058,250 µM
same,A (activity gain),S. aureus Mu50; ampicillin,2
same,A (activity gain),S. aureus Mu50; ciprofloxacin,1
same,A (activity gain),S. aureus Mu50; erythromycin,1
same,A (activity gain),S. aureus Mu50; vancomycin,1
same,MIC,S. aureus R45-CC45; R45-CC45 (MRSA),250 µM
same,A (activity gain),S. aureus LG-N017 [2]; ampicillin,1
same,A (activity gain),S. aureus LG-N017 [2]; erythromycin,1
same,MIC,S. aureus 5328,250 µM
same,MIC,S. aureus LG-N017 [3],250 µM
same,MIC,[4],> 2000 µM
same,MIC,S. aureus R46-CC22,250 to 500 µM
